Experimental data taken from ChEMBL document CHEMBL1139296, “Pleuromutilin derivatives having a purine ring. Part 2: influence of the central spacer on the antibacterial activity against Gram-positive pathogens” (2009).

The compounds below were run on Streptococcus pyogenes (assay: Antimicrobial activity against Streptococcus pyogenes […] by NCCLS method).
Format: functional

| SMILES | MIC |
| --- | --- |
| CC[C@]1(C)C[C@@H](OC(=O)CSC2CCN(C(=O)CCn3cnc4c(N5CCNCC5)nc(N)nc43)CC2)[C@]2(C)[C@H](C)CC[C@]3(CCC(=O)[C@@H]32)[C@@H](C)[C@@H]1O.Cl | 0.032 µg/mL |
| C=C[C@]1(C)C[C@@H](OC(=O)CSC2CCN(C(=O)CCn3cnc4c(N5CCNCC5)nc(N)nc43)CC2)[C@]2(C)[C@H](C)CC[C@]3(CCC(=O)[C@@H]32)[C@@H](C)[C@@H]1O.Cl | 0.032 µg/mL |
| C=C[C@]1(C)C[C@@H](OC(=O)CSC2CCCN(C(=O)CCn3cnc4c(N5CCNCC5)nc(N)nc43)C2)[C@]2(C)[C@H](C)CC[C@]3(CCC(=O)[C@@H]32)[C@@H](C)[C@@H]1O.Cl (some centres not stated) | 0.016 µg/mL |

What follows are compounds tested on Streptococcus pneumoniae (assay: Antimicrobial activity against penicillin-resistant Streptococcus pneumoniae KT2524 by NCCLS method).
Format: functional

| SMILES | MIC |
| --- | --- |
| CC[C@]1(C)C[C@@H](OC(=O)CSC2CCN(C(=O)CCn3cnc4c(N5CCNCC5)nc(N)nc43)CC2)[C@]2(C)[C@H](C)CC[C@]3(CCC(=O)[C@@H]32)[C@@H](C)[C@@H]1O.Cl | 0.063 µg/mL |
| C=C[C@]1(C)C[C@@H](OC(=O)CSC2CCN(C(=O)CCn3cnc4c(N5CCNCC5)nc(N)nc43)CC2)[C@]2(C)[C@H](C)CC[C@]3(CCC(=O)[C@@H]32)[C@@H](C)[C@@H]1O.Cl | 0.063 µg/mL |
| C=C[C@]1(C)C[C@@H](OC(=O)CSC2CCCN(C(=O)CCn3cnc4c(N5CCNCC5)nc(N)nc43)C2)[C@]2(C)[C@H](C)CC[C@]3(CCC(=O)[C@@H]32)[C@@H](C)[C@@H]1O.Cl (some centres not stated) | 0.032 µg/mL |

Each compound was assayed on Staphylococcus aureus (assay: Antimicrobial activity against methicillin-susceptible Staphylococcus aureus Smith by NCCLS method).
Format: functional

| SMILES | MIC |
| --- | --- |
| CC[C@]1(C)C[C@@H](OC(=O)CSC2CCN(C(=O)CCn3cnc4c(N5CCNCC5)nc(N)nc43)CC2)[C@]2(C)[C@H](C)CC[C@]3(CCC(=O)[C@@H]32)[C@@H](C)[C@@H]1O.Cl | 0.25 µg/mL |
| C=C[C@]1(C)C[C@@H](OC(=O)CSC2CCN(C(=O)CCn3cnc4c(N5CCNCC5)nc(N)nc43)CC2)[C@]2(C)[C@H](C)CC[C@]3(CCC(=O)[C@@H]32)[C@@H](C)[C@@H]1O.Cl | 0.25 µg/mL |
| C=C[C@]1(C)C[C@@H](OC(=O)CSC2CCCN(C(=O)CCn3cnc4c(N5CCNCC5)nc(N)nc43)C2)[C@]2(C)[C@H](C)CC[C@]3(CCC(=O)[C@@H]32)[C@@H](C)[C@@H]1O.Cl (some centres not stated) | 0.5 µg/mL |

These compounds were tested on Staphylococcus aureus (assay: Antimicrobial activity against methicillin-resistant Staphylococcus aureus KMP9).
Format: functional

| SMILES | MIC |
| --- | --- |
| CC[C@]1(C)C[C@@H](OC(=O)CSC2CCN(C(=O)CCn3cnc4c(N5CCNCC5)nc(N)nc43)CC2)[C@]2(C)[C@H](C)CC[C@]3(CCC(=O)[C@@H]32)[C@@H](C)[C@@H]1O.Cl | 0.25 µg/mL |
| C=C[C@]1(C)C[C@@H](OC(=O)CSC2CCN(C(=O)CCn3cnc4c(N5CCNCC5)nc(N)nc43)CC2)[C@]2(C)[C@H](C)CC[C@]3(CCC(=O)[C@@H]32)[C@@H](C)[C@@H]1O.Cl | 0.5 µg/mL |
| C=C[C@]1(C)C[C@@H](OC(=O)CSC2CCCN(C(=O)CCn3cnc4c(N5CCNCC5)nc(N)nc43)C2)[C@]2(C)[C@H](C)CC[C@]3(CCC(=O)[C@@H]32)[C@@H](C)[C@@H]1O.Cl (some centres not stated) | 1 µg/mL |

These compounds were tested on Streptococcus pneumoniae (assay: Antimicrobial activity against penicillin-susceptible Streptococcus pneumoniae ATCC 49619 by NCCLS method).
Format: functional

| SMILES | MIC |
| --- | --- |
| CC[C@]1(C)C[C@@H](OC(=O)CSC2CCN(C(=O)CCn3cnc4c(N5CCNCC5)nc(N)nc43)CC2)[C@]2(C)[C@H](C)CC[C@]3(CCC(=O)[C@@H]32)[C@@H](C)[C@@H]1O.Cl | 0.063 µg/mL |
| C=C[C@]1(C)C[C@@H](OC(=O)CSC2CCN(C(=O)CCn3cnc4c(N5CCNCC5)nc(N)nc43)CC2)[C@]2(C)[C@H](C)CC[C@]3(CCC(=O)[C@@H]32)[C@@H](C)[C@@H]1O.Cl | 0.063 µg/mL |
| C=C[C@]1(C)C[C@@H](OC(=O)CSC2CCCN(C(=O)CCn3cnc4c(N5CCNCC5)nc(N)nc43)C2)[C@]2(C)[C@H](C)CC[C@]3(CCC(=O)[C@@H]32)[C@@H](C)[C@@H]1O.Cl (some centres not stated) | 0.032 µg/mL |

Each compound was assayed on Enterococcus faecium (assay: Antimicrobial activity against vancomycin-resistant Enterococcus faecium KU1778 by NCCLS method).
Format: functional

| SMILES | MIC |
| --- | --- |
| CC[C@]1(C)C[C@@H](OC(=O)CSC2CCN(C(=O)CCn3cnc4c(N5CCNCC5)nc(N)nc43)CC2)[C@]2(C)[C@H](C)CC[C@]3(CCC(=O)[C@@H]32)[C@@H](C)[C@@H]1O.Cl | 0.125 µg/mL |
| C=C[C@]1(C)C[C@@H](OC(=O)CSC2CCN(C(=O)CCn3cnc4c(N5CCNCC5)nc(N)nc43)CC2)[C@]2(C)[C@H](C)CC[C@]3(CCC(=O)[C@@H]32)[C@@H](C)[C@@H]1O.Cl | 0.125 µg/mL |
| C=C[C@]1(C)C[C@@H](OC(=O)CSC2CCCN(C(=O)CCn3cnc4c(N5CCNCC5)nc(N)nc43)C2)[C@]2(C)[C@H](C)CC[C@]3(CCC(=O)[C@@H]32)[C@@H](C)[C@@H]1O.Cl (some centres not stated) | 0.25 µg/mL |

What follows are compounds tested on Moraxella catarrhalis (assay: Antimicrobial activity against Moraxella catarrhalis K1209 by NCCLS method).
Format: functional

| SMILES | MIC |
| --- | --- |
| CC[C@]1(C)C[C@@H](OC(=O)CSC2CCN(C(=O)CCn3cnc4c(N5CCNCC5)nc(N)nc43)CC2)[C@]2(C)[C@H](C)CC[C@]3(CCC(=O)[C@@H]32)[C@@H](C)[C@@H]1O.Cl | 0.125 µg/mL |
| C=C[C@]1(C)C[C@@H](OC(=O)CSC2CCN(C(=O)CCn3cnc4c(N5CCNCC5)nc(N)nc43)CC2)[C@]2(C)[C@H](C)CC[C@]3(CCC(=O)[C@@H]32)[C@@H](C)[C@@H]1O.Cl | 0.25 µg/mL |
| C=C[C@]1(C)C[C@@H](OC(=O)CSC2CCCN(C(=O)CCn3cnc4c(N5CCNCC5)nc(N)nc43)C2)[C@]2(C)[C@H](C)CC[C@]3(CCC(=O)[C@@H]32)[C@@H](C)[C@@H]1O.Cl (some centres not stated) | 0.125 µg/mL |

These compounds were tested on Haemophilus influenzae (assay: Antimicrobial activity against Haemophilus influenzae TH13 by NCCLS method).
Format: functional

| SMILES | MIC |
| --- | --- |
| CC[C@]1(C)C[C@@H](OC(=O)CSC2CCN(C(=O)CCn3cnc4c(N5CCNCC5)nc(N)nc43)CC2)[C@]2(C)[C@H](C)CC[C@]3(CCC(=O)[C@@H]32)[C@@H](C)[C@@H]1O.Cl | 1 µg/mL |
| C=C[C@]1(C)C[C@@H](OC(=O)CSC2CCN(C(=O)CCn3cnc4c(N5CCNCC5)nc(N)nc43)CC2)[C@]2(C)[C@H](C)CC[C@]3(CCC(=O)[C@@H]32)[C@@H](C)[C@@H]1O.Cl | 1 µg/mL |
| C=C[C@]1(C)C[C@@H](OC(=O)CSC2CCCN(C(=O)CCn3cnc4c(N5CCNCC5)nc(N)nc43)C2)[C@]2(C)[C@H](C)CC[C@]3(CCC(=O)[C@@H]32)[C@@H](C)[C@@H]1O.Cl (some centres not stated) | 2 µg/mL |

Each compound was assayed on Staphylococcus aureus (assay: Antimicrobial activity against methicillin-susceptible Staphylococcus aureus infected mouse assessed as survival rate administered iv after 1 hr of infection).
Format: functional

| SMILES | ED50 |
| --- | --- |
| CC[C@]1(C)C[C@@H](OC(=O)CSC2CCN(C(=O)CCn3cnc4c(N5CCNCC5)nc(N)nc43)CC2)[C@]2(C)[C@H](C)CC[C@]3(CCC(=O)[C@@H]32)[C@@H](C)[C@@H]1O.Cl | 1.66 mg/kg |
| C=C[C@]1(C)C[C@@H](OC(=O)CSC2CCN(C(=O)CCn3cnc4c(N5CCNCC5)nc(N)nc43)CC2)[C@]2(C)[C@H](C)CC[C@]3(CCC(=O)[C@@H]32)[C@@H](C)[C@@H]1O.Cl | 1.86 mg/kg |
| C=C[C@]1(C)C[C@@H](OC(=O)CSC2CCCN(C(=O)CCn3cnc4c(N5CCNCC5)nc(N)nc43)C2)[C@]2(C)[C@H](C)CC[C@]3(CCC(=O)[C@@H]32)[C@@H](C)[C@@H]1O.Cl (some centres not stated) | 3.13 mg/kg |
